Patent US20070021451A1, “Method for preventing or treating neurologic damage after spinal cord injury” (HAMAMATSU UNIVERSITY SCHOOL OF MEDICINE, priority 2005, published 2007)

Tests used:
[1] = test system: Rabbit Model of Spinal Cord Ischemia; experiment: Neurologic assessment: hind-limb motor function by modified Tarlov scale; type: in vivo, New Zealand White rabbits
Description: Twenty-six male New Zealand White rabbits weighting 2.2 to 3.0 kg were used in this experiment. Spinal cord ischemia was induced by occluding the abdominal aorta with […] for 20 minutes just distal to the renal arteries. Surgical preparation was conducted according to the method described in the literature, Terada H. et. al., J. Thorac. Cardiovasc. Surg. 2001; 122: 979-85. A 24-gauge venous catheter was placed in the marginal ear vein for drug administration. The rabbits were anesthetized with intravenous sodium pentobarbital (25 mg/kg) and allowed to breathe spontaneously. Lidocaine (0.5%) was administered at the site of the skin incision as local anesthesia. The left common carotid artery was cannulated with a 24-gauge catheter for monitoring the arterial pressure. Core body temperature was continuously monitored with a rectal probe and was maintained at 38.5° C. with the aid of heating lamp. The infrarenal abdominal aorta was exposed through a transperitoneal approach. After systemic heparinization (200 U/kg), spinal cord ischemia was induced by occluding the abdominal aorta with […] for 20 minutes just distal to the renal arteries and just above the aortic bifurcation. Then, the […] released, and the flank was closed. […] The rabbits were assigned randomly to 1 of the 4 groups and subjected to the treatment of (1) above in the following manner. The sham group (n=3) underwent the same operation without aortic occlusion. The control group (n=7) received saline (1 ml) intravenously 15 minutes before aortic occlusion. NS-7 (1 mg/kg) was administered intravenously as a bolus dose 15 minutes before aortic occlusion in group A (n=8) or just after releasing the […] onset of reperfusion) in group B (n=8). Hind-limb motor function was scored 24 and 48 hours after the operation by the modified Tarlov scale.

[2] = test system: Rabbit Model of Spinal Cord Ischemia; experiment: Infarct size of spinal cords by TTC staining; type: in vivo, New Zealand White rabbits; settings: for Infarct size as a percentage of the area of the whole gray matter: mid lumbar, 48 hours after spinal cord ischemia, control 54.7±19.8%
Description: Twenty-six male New Zealand White rabbits weighting 2.2 to 3.0 kg were used in this experiment. Spinal cord ischemia was induced by occluding the abdominal aorta with […] for 20 minutes just distal to the renal arteries. Surgical preparation was conducted according to the method described in the literature, Terada H. et. al., J. Thorac. Cardiovasc. Surg. 2001; 122: 979-85. A 24-gauge venous catheter was placed in the marginal ear vein for drug administration. The rabbits were anesthetized with intravenous sodium pentobarbital (25 mg/kg) and allowed to breathe spontaneously. Lidocaine (0.5%) was administered at the site of the skin incision as local anesthesia. The left common carotid artery was cannulated with a 24-gauge catheter for monitoring the arterial pressure. Core body temperature was continuously monitored with a rectal probe and was maintained at 38.5° C. with the aid of heating lamp. The infrarenal abdominal aorta was exposed through a transperitoneal approach. After systemic heparinization (200 U/kg), spinal cord ischemia was induced by occluding the abdominal aorta with […] for 20 minutes just distal to the renal arteries and just above the aortic bifurcation. Then, the […] released, and the flank was closed. […] The rabbits were assigned randomly to 1 of the 4 groups and subjected to the treatment of (1) above in the following manner. The sham group (n=3) underwent the same operation without aortic occlusion. The control group (n=7) received saline (1 ml) intravenously 15 minutes before aortic occlusion. NS-7 (1 mg/kg) was administered intravenously as a bolus dose 15 minutes before aortic occlusion in group A (n=8) or just after releasing the […] onset of reperfusion) in group B (n=8). All animals were killed by means of a lethal injection of pentobarbital (200 mg/kg) 48 hours after operation. […] The area of infarction was calculated with National Institutes of Health Image software. The infarct size was expressed as a percentage of the area of the whole gray matter. […]

[3] = Group A (n = 8, NS-7 1 mg/kg i.v. 15 min before aortic occlusion), 24 h after operation
[4] = Group A (n = 8, NS-7 1 mg/kg i.v. 15 min before aortic occlusion), 48 h after operation
[5] = Group B (n = 8, NS-7 1 mg/kg i.v. at onset of reperfusion), 24 h after operation
[6] = Group B (n = 8, NS-7 1 mg/kg i.v. at onset of reperfusion), 48 h after operation

Compound: Cc1cc(-c2ccc(F)cc2)cc(OCCCCCN2CCCCC2)n1.Cl [NS-7, 4-(4-Fluorophenyl)-2-methyl-6-(5-piperidinopentyloxy)pyridine hydrochloride]
- Number of rabbits with Tarlov score 0 [1, 3]: 0
- Number of rabbits with Tarlov score 1 [1, 3]: 0
- Number of rabbits with Tarlov score 2 [1, 3]: 0
- Number of rabbits with Tarlov score 3 [1, 3]: 2
- Number of rabbits with Tarlov score 4 [1, 3]: 3
- Number of rabbits with Tarlov score 5 [1, 3]: 3
- Number of rabbits with Tarlov score 0 [1, 4]: 0
- Number of rabbits with Tarlov score 1 [1, 4]: 0
- Number of rabbits with Tarlov score 2 [1, 4]: 1
- Number of rabbits with Tarlov score 3 [1, 4]: 2
- Number of rabbits with Tarlov score 4 [1, 4]: 4
- Number of rabbits with Tarlov score 5 [1, 4]: 1
- Number of rabbits with Tarlov score 0 [1, 5]: 0
- Number of rabbits with Tarlov score 1 [1, 5]: 0
- Number of rabbits with Tarlov score 2 [1, 5]: 0
- Number of rabbits with Tarlov score 3 [1, 5]: 2
- Number of rabbits with Tarlov score 4 [1, 5]: 1
- Number of rabbits with Tarlov score 5 [1, 5]: 5
- Number of rabbits with Tarlov score 0 [1, 6]: 0
- Number of rabbits with Tarlov score 1 [1, 6]: 0
- Number of rabbits with Tarlov score 2 [1, 6]: 1
- Number of rabbits with Tarlov score 3 [1, 6]: 2
- Number of rabbits with Tarlov score 4 [1, 6]: 1
- Number of rabbits with Tarlov score 5 [1, 6]: 4
- Recovery of motor function in the hind limbs ([1]; group A and B, 24 hours and 48 hours after the operation, P<0.01 vs control): remarkably enhanced
- Infarct size as a percentage of the area of the whole gray matter ([2]; NS-7 1 mg/kg i.v. at the onset of reperfusion (group B)): 12.1±12.8%
- Infarct size as a percentage of the area of the whole gray matter ([2]; NS-7 1 mg/kg i.v. injected before ischemia (group A)): 14.0±14.3%
- Gray matter infarction in TTC-stained sections (FIG. 1) ([2]; NS-7 before ischemia or at the onset of reperfusion, mid lumbar level): Minimal gray matter infarction
